According to patent US20110039763A1, “TARGETED ANTIMICROBIAL MOIETIES” (C3 JIAN, INC., priority 2009, published 2011):
“Also recorded” adds a separate entry of the source.

Assays:
microorganisms [1] = assay: Targeting peptide binding to target microorganisms (Tables 3, 10, 12); details: microorganism(s) the targeting peptide binds, preferably 1x PBS
microorganisms [2] = assay: Peptide activities: targeting/binding, antimicrobial, growth or phenotype altering (Tables 7, 8); assay type: cell-based; details: peptides having multiple activities
microorganisms [3] = assay: Morphology, biofilm and growth disrupting peptides (Table 5); assay type: cell-based; set-up: key: A: Peptide aggregates; B: Less hyphal formation; Clumps; Diffuse clumps and small polyps; F: Diffuse growth; H: Thin; I: Growth inhibition; Microcolony formation; Rippled; Small polyps; Thick; W: Halo formation on top, microlonies on bottom
Description: In certain embodiments peptides that induce alterations in phenotype or other biological activities can also be used as antimicrobial effector moieties.

[4] = binding in aqueous buffers that varied with peptide solubility
[5] = binding in aqueous buffers varied with peptide solubility

Molecule: ALDCSEQSVILWYETILDKIVGVIK [PF-028]
- Target(s) (microorganisms [1]; [4]): S. epidermidis and M. luteus and MRSA
- Activities (microorganisms [2]): G B
- Organism, effect: C. jeikeium (microorganisms [3]; C. jeikeium): C. jeikeium (M)
- Organism, effect: MRSA (microorganisms [3]; MRSA): MRSA (R)
- Organism, effect: S. epidermidis (microorganisms [3]; S. epidermidis): S. epidermidis (M)

Molecule: DEIKVSDEEIEKFIKENNL [PF-597]
- Target(s) (microorganisms [1]; [5]): P. mirabilis
- Activities (microorganisms [2]): G B
- Organism, effect (microorganisms [3]; E. faecalis): E. faecalis (A)

Molecule: GNVHPESDFHNLIQFIKTFLYFTIFFKYFL [PF-C290]
- Target(s) (microorganisms [1]; [5]): A. naeslundii; also recorded: F. nucleatum; also recorded: P. gingivalis; also recorded: S. mutans; also recorded: T. denticola
- Activities (microorganisms [2]): G B
- Organism, effect (microorganisms [3]; S. mutans): S. mutans (F)

Molecule: HCVIGNVVDIANLLKRRAVYRDIADVIKMR [PF-071]
- Target(s) (microorganisms [1]; [4]): S. epidermidis and E. coli and P. aeruginosa and C. albicans and MRSA and S. pneumoniae and E. faecalis
- Activities (microorganisms [2]): G B
- Organism, effect: B. subtilis (microorganisms [3]; B. subtilis): B. subtilis (D)
- Organism, effect: C. albicans (microorganisms [3]; C. albicans): C. albicans (B)
- Organism, effect: C. jejuni (microorganisms [3]; C. jejuni): C. jejuni (A)
- Organism, effect: M. luteus (microorganisms [3]; M. luteus): M. luteus (R)
- Organism, effect: MRSA (microorganisms [3]; MRSA): MRSA (C)
- Organism, effect: S. epidermidis (microorganisms [3]; S. epidermidis): S. epidermidis (R)
- Organism, effect: S. pneumoniae (microorganisms [3]; S. pneumoniae): S. pneumoniae (A)

Molecule: HKNKLNIPHIKS [PF-477]
- Target(s) (microorganisms [1]; [5]): S. epidermidis; also recorded: M. luteus; also recorded: C. albicans; also recorded: S. pneumoniae; also recorded: C. jeikeium; also recorded: C. jejuni
- Activities (microorganisms [2]): G B
- Organism, effect (microorganisms [3]; S. pneumoniae): S. pneumoniae (H)

Molecule: KKFKIFVIINWFYHKYIILNFEENF [PF-C085]
- Target(s) (microorganisms [1]; [5]): A. naeslundii; also recorded: F. nucleatum; also recorded: P. gingivalis; also recorded: S. mutans; also recorded: T. denticola
- Activities (microorganisms [2]): G B
- Organism, effect (microorganisms [3]; S. mutans): S. mutans (F)

Molecule: LHVIRPRPELSELKFPITKILKVNKQGLKK [PF-752]
- Target(s) (microorganisms [1]; [5]): S. epidermidis and E. coli and MRSA and S. pneumoniae and E. faecalis
- Activities (microorganisms [2]): G B
- Organism, effect (microorganisms [3]; S. pneumoniae): S. pneumoniae (C)

Molecule: LIQKGLNQTFIVVIRLNNFIKKS [PF-013]
- Target(s) (microorganisms [1]; [4]): M. luteus and P. mirabilis and E. coli and P. aeruginosa and MRSA and S. pneumoniae and C. jeikeium and C. jejuni
- Activities (microorganisms [2]): G B
- Organism, effect: C. jeikeium (microorganisms [3]; C. jeikeium): C. jeikeium (D)
- Organism, effect: M. luteus (microorganisms [3]; M. luteus): M. luteus (D)
- Organism, effect: MRSA (microorganisms [3]; MRSA): MRSA (R)
- Organism, effect: S. epidermidis (microorganisms [3]; S. epidermidis): S. epidermidis (C)

Molecule: LMFFSENMDKRDTLSGKFRYFAGSKVIKLMNWLSENGK [PF-226]
- Target(s) (microorganisms [1]; [5]): A. baumannii
- Activities (microorganisms [2]): G B
- Organism, effect: M. luteus (microorganisms [3]; M. luteus): M. luteus (T)
- Organism, effect: S. epidermidis (microorganisms [3]; S. epidermidis): S. epidermidis (C)

Molecule: LNFRAENKILEKIHISLIDTVEGSA [PF-575]
- Target(s) (microorganisms [1]; [5]): M. luteus and E. coli and C. albicans and MRSA and S. pneumoniae and E. faecalis and C. jeikeium
- Activities (microorganisms [2]): G B
- Organism, effect (microorganisms [3]; C. jeikeium): C. jeikeium (A)
- Organism, effect (microorganisms [3]; C. jejuni): C. jejuni (R)
- Organism, effect (microorganisms [3]; P. aeruginosa): P. aeruginosa (A)
- Organism, effect (microorganisms [3]; S. pneumoniae): S. pneumoniae (A)

Molecule: LSPRPIIVSRRSRADNNNDWSR [PF-143]
- Target(s) (microorganisms [1]; [5]): S. epidermidis and MRSA and C. jeikeium
- Activities (microorganisms [2]): G B
- Organism, effect: P. aeruginosa (microorganisms [3]; P. aeruginosa): P. aeruginosa (C)

Molecule: MQIFYIKTKIFLSFFLFLLIFSQCFYKIEE [PF-442]
- Target(s) (microorganisms [1]; [5]): S. epidermidis; also recorded: E. coli; also recorded: C. albicans; also recorded: S. pneumoniae; also recorded: E. faecalis
- Activities (microorganisms [2]): G B
- Organism, effect (microorganisms [3]; MRSA): MRSA (M)
- Organism, effect (microorganisms [3]; S. pneumoniae): S. pneumoniae (C)

Molecule: NTNDLLQAFELMGLGMAGVFIVLGILYIVAELLIKIFPVNN [PF-C194]
- Target(s) (microorganisms [1]; [5]): A. naeslundii; also recorded: F. nucleatum; also recorded: P. gingivalis; also recorded: S. mutans; also recorded: T. denticola
- Activities (microorganisms [2]): G B
- Organism, effect (microorganisms [3]; F. nucleatum): F. nucleatum (T)
- Organism, effect (microorganisms [3]; P. gingivalis): P. gingivalis (T)
- Organism, effect (microorganisms [3]; S. mutans): S. mutans (F)

Molecule: PF-002: peptide having multiple activities (NDDAQ; Peptide with targeting and/or antimicrobial activity)
- Target(s) (microorganisms [1]; [4]): S. epidermidis; also recorded: P. mirabilis; also recorded: C. albicans; also recorded: C. jeikeium; also recorded: C. jejuni
- Activities (microorganisms [2]): G B
- Organism, effect: B. subtilis (microorganisms [3]; B. subtilis): B. subtilis (R)
- Organism, effect: S. pneumoniae (microorganisms [3]; S. pneumoniae): S. pneumoniae (H)

Molecule: PF-003: peptide having multiple activities (MNNWIKVAQISVTVINEVIDIMKEKQNGGK; Peptide with targeting and/or antimicrobial activity)
- Target(s) (microorganisms [1]; [4]): S. epidermidis and M. luteus and P. mirabilis and C. albicans and MRSA and C. jeikeium
- Activities (microorganisms [2]): G B
- Organism, effect: C. jeikeium (microorganisms [3]; C. jeikeium): C. jeikeium (A)
- Organism, effect: M. luteus (microorganisms [3]; M. luteus): M. luteus (A)
- Organism, effect: MRSA (microorganisms [3]; MRSA): MRSA (R)
- Organism, effect: S. epidermidis (microorganisms [3]; S. epidermidis): S. epidermidis (D)

Molecule: PF-619: peptide having multiple activities (chain 1 WSRVPGHSDTGWKVWHRW; chain 2 WSRVPGHSDTGWKVWHRW; Peptide with targeting and/or antimicrobial activity)
- Activities (microorganisms [2]): G B
- Organism, effect (microorganisms [3]; E. coli): E. coli (C)
- Organism, effect (microorganisms [3]; MRSA): MRSA (M)
- Organism, effect (microorganisms [3]; S. epidermidis): S. epidermidis (M)
- Organism, effect (microorganisms [3]; S. pneumoniae): S. pneumoniae (C)

Molecule: PF-630: peptide having multiple activities (chain 1 IPATPIIHS; chain 2 IPATPIIHS; Peptide with targeting and/or antimicrobial activity)
- Activities (microorganisms [2]): G B
- Organism, effect (microorganisms [3]; MRSA): MRSA (M)

Molecule: PF-634: peptide having multiple activities (chain 1 MPKARPVNHNKKKSKITIKSNFTLFYMFNP; chain 2 MPKARPVNHNKKKSKITIKSNFTLFYMFNP; Peptide with targeting and/or antimicrobial activity)
- Activities (microorganisms [2]): G B
- Organism, effect (microorganisms [3]; E. coli): E. coli (C)
- Organism, effect (microorganisms [3]; M. luteus): M. luteus (C)
- Organism, effect (microorganisms [3]; MRSA): MRSA (D)
- Organism, effect (microorganisms [3]; P. mirabilis): P. mirabilis (C)
- Organism, effect (microorganisms [3]; S. epidermidis): S. epidermidis (D)
- Organism, effect (microorganisms [3]; S. mutans): S. mutans (D)
- Organism, effect (microorganisms [3]; S. pneumoniae): S. pneumoniae (D)

Molecule: PF-770: peptide having multiple activities (GVGIGFIMMGVVGYAVKLVHIPIRYLIV; Peptide with targeting and/or antimicrobial activity)
- Activities (microorganisms [2]): G B
- Organism, effect (microorganisms [3]; E. coli): E. coli (C)
- Organism, effect (microorganisms [3]; M. luteus): M. luteus (C)
- Organism, effect (microorganisms [3]; MRSA): MRSA (D)
- Organism, effect (microorganisms [3]; P. mirabilis): P. mirabilis (C)
- Organism, effect (microorganisms [3]; S. epidermidis): S. epidermidis (D)
- Organism, effect (microorganisms [3]; S. mutans): S. mutans (D)
- Organism, effect (microorganisms [3]; S. pneumoniae): S. pneumoniae (C)

B1: PF-612: peptide having multiple activities (peptide)
chain 1: GTTLKYGLERQLKIDIHPEITIINLNGGADEFAKL
chain 2: B1 chain 1
modifications: Peptide with targeting and/or antimicrobial activity
- Activities (microorganisms [2]): G B
- Organism, effect (microorganisms [3]; E. coli): E. coli (C)
- Organism, effect (microorganisms [3]; M. luteus): M. luteus (A)
- Organism, effect (microorganisms [3]; MRSA): MRSA (C)
- Organism, effect (microorganisms [3]; P. mirabilis): P. mirabilis (C)
- Organism, effect (microorganisms [3]; S. epidermidis): S. epidermidis (C)
- Organism, effect (microorganisms [3]; S. mutans): S. mutans (F)
- Organism, effect (microorganisms [3]; S. pneumoniae): S. pneumoniae (C)

B2: PF-S003: peptide having multiple activities (peptide)
chain 1: ALALLKQDLLNFEGRGRIITSTYLQFNEGCVP
chain 2: B2 chain 1
modifications: Peptide with targeting and/or antimicrobial activity
- Activities (microorganisms [2]): G B
- Organism, effect (microorganisms [3]; B. subtilis): B. subtilis (A)
- Organism, effect (microorganisms [3]; C. albicans): C. albicans (A)
- Organism, effect (microorganisms [3]; C. jeikeium): C. jeikeium (D)
- Organism, effect (microorganisms [3]; C. jejuni): C. jejuni (D)
- Organism, effect (microorganisms [3]; M. luteus): M. luteus (R)
- Organism, effect (microorganisms [3]; MRSA): MRSA (M)
- Organism, effect (microorganisms [3]; P. aeruginosa): P. aeruginosa (A)
- Organism, effect (microorganisms [3]; S. epidermidis): S. epidermidis (R)
- Organism, effect (microorganisms [3]; S. pneumoniae): S. pneumoniae (D)
